We go through 10 molecules from PubChem BioAssay (NCI).

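Tested at 5 concentrations; 48 h exposure; 96-well plates; endpoints linearly interpolated, else capped at highest concentration. At the GI50, growth is halved. TGI: concentration producing complete growth inhibition.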 A value given as a limit tells only on which side of the number the result lay.

Holding throughout (assay): NCI anticancer screen, dose series, 48 h
For assay [1], the system named is HCT-116 colon.
The test system of assay [2] is MCF7 breast.
In assay [3] the test system is SF-268 CNS.
In assay [4] the test system is SK-MEL-2 melanoma.
The test system of assay [5] is SNB-19 CNS.
For assay [6], the system named is A498 renal.
Assay [7] concerns HOP-62 NSCLC.
For assay [8], the system named is NCI/ADR-RES ovarian.
Assay [9] relates to UACC-257 melanoma.
Assay [10] has as its system HT29 colon.

Take `COc1cccc2c1-c1c(c3ccc([N+](=O)[O-])cc3c(=O)n1CCCCl)C2=O`: the GI50 in assay [1] was 2.48 µM; in assay [2], 0.0614 µM; in assay [3] it was 0.00993 µM; in assay [4], 48.8 µM; in [5], 12.4 µM; in [6] it was 17.4 µM. Moreover, the GI50 was 5.46 µM in [7], over 50 µM in assay [8], over 50 µM in [9] and over 50 µM in [10]. Besides, the TGI in assay [1] is over 50 µM; in assay [2], 0.327 µM; in assay [3], 3.96 µM; in [4] it was over 50 µM; in [5] it was over 50 µM; in assay [6], over 50 µM. Also, the TGI in assay [7] is 15.9 µM; in [8] it was over 50 µM; in assay [9], over 50 µM; in [10], over 50 µM.
With `COC1CCC(O)C(/C=C/[N+](=O)[O-])C1` (stereo not drawn), the TGI in assay [1] was found to be 4.58 µM; in assay [2] it was 12.9 µM; in assay [3], 15 µM; in [4], 23.1 µM; in assay [5], 23.6 µM; in assay [6], 14.2 µM. For the same molecule, the TGI in assay [7] stood at 19.1 µM; in [8] it was 75.1 µM; in [9], 5.48 µM; in [10], 11.2 µM.
As for `O=c1cc(N2CCNCC2)oc2c(-c3ccccc3)cccc12`, the GI50 is 40.7 µM in [2]; 46.3 µM in assay [3]; 51.5 µM in assay [4]; 34.5 µM in assay [5]; 25 µM in assay [6]; 65.4 µM in assay [7]. Further, the GI50 is over 100 µM in assay [8], 13.6 µM in assay [9] and 24.8 µM in [10]. Besides, the TGI in assay [2] is over 100 µM; in assay [3], over 100 µM; in assay [4], over 100 µM; in [5] it was over 100 µM; in assay [6] it was 74.8 µM; in assay [7], over 100 µM. Moreover, the values for the TGI in assay [8], in assay [9] and in [10] were over 100 µM, 29.1 µM and over 100 µM, respectively.
On to `CC(C)(C#N)c1cc(F)cc(C(=O)Nc2cc(Nc3ncccc3-c3ncnc4nc[nH]c34)ccc2F)c1`, for which the GI50 was 0.212 µM in assay [1]; 8.73 µM in assay [2]; 3.78 µM in assay [3]; 0.144 µM in assay [4]; 4.44 µM in assay [5]; 0.2 µM in assay [6]. Further, the values for the GI50 in assay [7], in assay [8] and in [10] were 0.475 µM, 4.58 µM and 0.151 µM, respectively. The TGI in assay [1] was over 10 µM; in assay [2], over 10 µM; in [3], over 10 µM; in assay [4], 1.17 µM; in assay [5], over 10 µM; in assay [6], 1.09 µM. For the same molecule, the TGI in assay [7], in assay [8] and in assay [10] was over 10 µM in each case.
Regarding `CC1CCN(CCCCCOc2ccc3oc4cc(Cl)ccc4c(=O)c3c2)CC1`, the GI50 in [1] was 2.42 µM; in [2] it was 5.9 µM; in [3], 7.4 µM; in assay [4], 9.3 µM; in [5] it was 8.03 µM; in assay [6], 5.97 µM. In addition, the GI50 in assay [8] was 8.14 µM; in assay [9], 1.33 µM; in [10], 1.72 µM. Moreover, the TGI in assay [1] was 7.86 µM; in [2], 14.2 µM; in assay [3] it was 15.8 µM; in assay [4], 17.5 µM; in [5], 15.2 µM; in assay [6], 12.7 µM. Besides, the results for the TGI in assay [8], in assay [9] and in assay [10] were 21.8 µM, 3.22 µM and 6.2 µM, respectively.
With `CCOc1cc2c(cc1O)/C(=N\O)C[C@@H]1[C@@H]2CC[C@]2(C)[C@@H](O)CC[C@@H]12`, the GI50 was 0.0264 µM in assay [2]; 0.0884 µM in assay [3]; 0.00629 µM in assay [5]; 0.604 µM in [6]; 3.94 µM in [10]. Besides, the TGI is 55.6 µM in assay [4]; over 100 µM in [6]; over 100 µM in assay [7]; over 100 µM in [8]; over 100 µM in assay [10].
Take `O=S(=O)(O)c1ccc(-c2nnc(-c3ccccn3)nc2-c2ccc(S(=O)(=O)O)o2)o1`: the TGI in assay [1], in [2], in assay [3], in [4], in assay [5] and in assay [6] was over 100 µM throughout. Further, the TGI in assay [7], in assay [8] and in assay [10] was over 100 µM throughout.
Consider `COc1cnc2c(c1)C(=O)c1c-2n(CCCN2CCC(O)CC2)c(=O)c2cc(F)ccc12`, for which the GI50 in assay [1] is 0.0895 µM; in assay [2], 0.0312 µM; in [3], 0.272 µM; in assay [4] it was 0.61 µM; in assay [5], 0.175 µM; in [6] it was 0.198 µM. The GI50 is 0.142 µM in assay [7], 0.303 µM in assay [8] and 0.296 µM in assay [9]. The TGI in assay [1] is 0.591 µM; in assay [2], 1.17 µM; in assay [3], 8.32 µM; in assay [4], 2.86 µM; in [5], 1.32 µM; in [6], 1.23 µM. The TGI in assay [7] amounted to 0.645 µM; in assay [8], 1.98 µM; in assay [9], 1.81 µM.
As for `C/C1=C/C2=CC(C)C[C@@H]2C(=O)[C@]2(C)C(=O)CC(C)(C)[C@H]2CC1=O` (stereo partly drawn), the TGI in assay [1], in assay [2], in assay [3], in assay [4], in assay [5] and in assay [6] was over 50 µM throughout. Further, the TGI in assay [8], in assay [9] and in [10] was over 50 µM each time.
As for `C/C(=C\C1=C(Cl)C(=O)c2ccccc2C1=O)C(=O)O`, the GI50 in [1] was 28.4 µM; in [2], 17.6 µM; in assay [3] it was 18.3 µM; in assay [4], 18.1 µM; in [5], 17.7 µM; in [6] it was 21.9 µM. In addition, the GI50 in assay [7] is 18.8 µM; in [8], 21.1 µM; in assay [10], 20.1 µM. For the same molecule, the TGI in [1] was over 100 µM; in assay [2] it was 43.3 µM; in assay [3] it was 32.2 µM; in [4], 33.4 µM; in assay [5] it was 31.7 µM; in assay [6], 36.3 µM. In addition, the TGI worked out at 33.7 µM in assay [7], 46.8 µM in assay [8] and 36.7 µM in assay [10].
